Consider one compound from US9095564B2, “von Willebrand factor or factor VIII and von Willebrand factor for the treatment of coagulopathy induced by inhibitors of thrombocytes” (CSL Behring GmbH, priority 2008, dated 2015).

In series [1] the test system is clopidogrel treated rats. Briefly: Tail tip bleeding (total blood loss) in the rat clopidogrel model. The format is in vivo. The procedure:
The study was designed as an open seven-armed trial with 115 rats (+60 platelet donors).
3.2 mL blood were mixed with 0.8 mL trisodium citrate. Blood samples were pooled and centrifuged at 900 RPM for 30 minutes. Platelet-rich-plasma was collected into a fresh tube and centrifugated at 1800-2000 RPM for 15-17 minutes. The pellet was gently resuspended in Tyrode HEPES+0.3% BSA. Depending on platelet yield animals received 1.6−3×10^9 washed platelets intravenous into the tail vein.
Tablets were dissolved in isotonic saline and administered by gavage. On day 2 freshly prepared rat platelets were transfused into the tail vein by a bolus. Haemate® P was administered directly prior to platelet transfusion. 15 minutes after administration of platelets, blood loss was determined. The volume of total blood loss was calculated by measuring the HGB present in the saline used for submersion of the tail tip. The tail tip cut was performed with a scalpel knife under deep anesthesia, removing about 3 mm of the tail tip. Immediately upon lesion, the tail tip was submerged in saline, kept at the physiological body temperature of the rats using a water bath. The observation period to monitor bleeding was 30 min.
Blood loss was determined as the total blood loss (t=0-30 min) and analyzed by two-sided exact Wilcoxon test, box plot and Kaplan-Meier plot.

In series [2] the test system is thrombin generation in platelet rich plasma. Briefly: Thrombin generation/thrombogram in platelet rich plasma, rat clopidogrel model. The format is in vivo. The settings on record: clopidogrel treatment, or single agent given to clopidogrel treated rats. The procedure:
When Haemate® P was administered to clopigogrel treated rats an earlier onset of thrombin formation was observed but no increase of peak thrombin.

The mark [3] stands for this setting: Group 1: Plavix/Isotonic saline, t=0-30 min.

Take `COC(=O)[C@H](c1ccccc1Cl)N1CCc2sccc2C1` [Plavix, clopidogrel]: in series [1] (setting [3]), the “Total blood loss, Maximum” value is 2345 µL; the “Total blood loss, Mean” value turned out to be 1404.2 µL; the “Total blood loss, Median” value turned out to be 1466 µL; the “Total blood loss, Minimum” value came out at 265 µL. Further, in series [1] (oral treatment with clopidogrel 2.5 mg/kg day 0 and day 1), the “total blood loss (result in words)” value is reported as “increased total blood loss”. Besides, in series [2], the “onset of thrombin formation” value is reported as “later onset” and the peak thrombin entry is given as “decrease in peak thrombin”.
